Structures can show the parent of a compound that is named as a salt. Starred links: 1 amine or outer side, 2 acyl side, 3 side chain; linkers in the order of their positions; H or OH if unused. Non-standard residues stand in square brackets, D forms with d. Residues, ends and D or L forms follow the SMILES beside them. Groups on a side chain read outwards from the residue. *: point of attachment. F(4OEtnHNODAGA-Lu) = lutetium complex of 2,2'-(7-(4-((2-(4-((S)-2-amino-2-carboxyethyl)phenoxy)ethyl)amino)-1-carboxy-4-oxobutyl)-1,4,7-triazonane-1,4-diyl)diacetic acid (Phe with 4-O-ethylamino-NODAGA-Lu); F4(METRIAZOLYLMENHDOTA-Lu) = Phe with 4-(methyl-triazolyl-methyl-NH-DOTA), Lu complex; COpipzaa = 4-(carboxymethyl)piperazine-1-carbonyl, O=C(O)CN1CCN(C(=O)*)CC1; F(4amPEG2NHRDOTAGA-Lu) = Phe with 4-aminomethyl-PEG2-NH-DOTAGA, Lu complex; X9 = O=C(O)CN1CCN(CC(=O)O)CCN([C@H](CCC(=O)*)C(=O)O)CCN(CC(=O)O)CC1; hS(Pr) = O-propyl-L-homoserine, CCCOCC[C@H](N[*:1])C(=O)[*:2]; Piperazinyl(4-CH2COOH) = O=C(O)CN1CCN(*)CC1; AEF = NCCOc1ccc(C[C@H](N)C(=O)O)cc1; NMeF = CN[C@@H](Cc1ccccc1)C(=O)O; αMeD = C[C@](N)(CC(=O)O)C(=O)O; Aoc(2) = CCCCCC[C@H](N)C(=O)O; Ahp(2) = CCCCC[C@H](N)C(=O)O; CO = O=C([*:1])[*:2]
How the values were obtained:
mouse FAP [1] = target: T1, mouse FAP (Mus musculus, UniProt P97321); experiment: Surface plasmon resonance (SPR) for peptide affinity, mouse FAP; assay type: binding
T1 construct: biotinylated His, Avi tag, mouse FAP (26-761, FAP-M82Q5); His; Avi tag (biotinylated); purchased AcroBiosystems FAP-M82Q5
T1 sequence (P97321 26-761): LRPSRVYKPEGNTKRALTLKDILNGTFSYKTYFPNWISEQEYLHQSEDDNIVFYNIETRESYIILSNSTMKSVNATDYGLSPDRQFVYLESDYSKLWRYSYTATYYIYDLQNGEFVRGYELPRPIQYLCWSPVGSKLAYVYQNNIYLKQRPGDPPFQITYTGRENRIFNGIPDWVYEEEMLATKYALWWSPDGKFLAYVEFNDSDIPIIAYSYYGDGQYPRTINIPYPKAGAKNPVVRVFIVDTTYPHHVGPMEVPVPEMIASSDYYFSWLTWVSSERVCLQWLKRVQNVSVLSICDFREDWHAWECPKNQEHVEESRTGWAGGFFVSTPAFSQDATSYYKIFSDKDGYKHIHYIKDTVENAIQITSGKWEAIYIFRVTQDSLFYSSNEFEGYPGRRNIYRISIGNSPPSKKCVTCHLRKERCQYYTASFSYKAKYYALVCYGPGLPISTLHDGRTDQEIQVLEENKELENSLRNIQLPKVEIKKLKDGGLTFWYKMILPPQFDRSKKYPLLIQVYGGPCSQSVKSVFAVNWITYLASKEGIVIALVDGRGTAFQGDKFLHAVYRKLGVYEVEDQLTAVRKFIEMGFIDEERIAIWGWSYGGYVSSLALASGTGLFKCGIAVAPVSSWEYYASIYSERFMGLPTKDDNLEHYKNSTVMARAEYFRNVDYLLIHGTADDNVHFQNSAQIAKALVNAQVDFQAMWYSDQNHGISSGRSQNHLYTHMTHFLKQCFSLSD
Method: Peptide affinities (KD) were determined by SPR using a Biacore™ 8K device (Cytiva) towards the following proteins: biotinylated His, Avi tag, human FAP (26-760, FAP-H82Q6), biotinylated His, Avi tag, mouse FAP (26-761, FAP-M82Q5), His tag, human DPP4 (34-766, DP4-H82E3), all purchased from AcroBiosystems and His tag, mouse DPP4 (29-760, 954-SE) from R&D Systems. The FAP proteins and their homologous were diluted to a concentration of 2 μg/mL into acetate buffer pH 5.5, then immobilized onto a CM5 sensorchip (Cytiva, BR-1005-30) to reach a response around 2000 R U. The running buffer HBS-EP+pH 7.6 (20× from Teknova CAT. No: H8022) contained 10 mM HEPES pH 7.6, 150 mM NaCl, 3 mM EDTA, 0.05% Tween20 and 2% DMSO. Experiments were carried out at 25° C. using a flow rate of 30 μL/min. Compounds were tested in single cycle kinetic mode at 8 different concentrations. Curve fitting was performed using the Biacore™ 8K evaluation software. The sensorgrams were fitted by applying a 1:1 binding model to calculate kinetic rate constants and equilibrium dissociation constants (KD).
For this assay, the setup had the same conditions (flow rate, running buffer, peptide dilution) as described above for the CM5 method. The oligo CAP reagent obtained in the CAPture Kit (Ref. 28920234) was 1/5 diluted into running buffer and used with a contact time of 300 s at a flow rate of 2 μL/min. The human and mouse FAP constructs described above were used (from AcroBiosystems or produced in house). The FAP proteins were diluted to a concentration of 2 μg/mL into acetate pH 5.5, 0.05% Tween20 and used with a contact time of 600 s at a flow rate of 10 μL/min. The peptides were tested with an association time of 280 s followed by a dissociation time of 3000 s at a flow rate of 30 μL/min. The regeneration was done using the regeneration solution (8 M guanidine-HCl, 1 M NaOH) as obtained with a contact time of 270 s at a flow rate of 10 μL/min. […] The compounds marked with an asterisk were tested against human and mouse DDP4.

human FAP = target: T2, human FAP (Homo sapiens, UniProt Q12884); experiment: Enzymatic FAP competition assay (Z-Gly-Pro-AMC fluorescence), human FAP; assay type: biochemical; details: read-out: h. FAP, Enz., IC50
T2 construct: the biotinylated His, Avi tag, human FAP (26-760, FAP-H82Q6); His; Avi tag (biotinylated); purchased AcroBiosystems FAP-H82Q6
T2 sequence (Q12884 26-760): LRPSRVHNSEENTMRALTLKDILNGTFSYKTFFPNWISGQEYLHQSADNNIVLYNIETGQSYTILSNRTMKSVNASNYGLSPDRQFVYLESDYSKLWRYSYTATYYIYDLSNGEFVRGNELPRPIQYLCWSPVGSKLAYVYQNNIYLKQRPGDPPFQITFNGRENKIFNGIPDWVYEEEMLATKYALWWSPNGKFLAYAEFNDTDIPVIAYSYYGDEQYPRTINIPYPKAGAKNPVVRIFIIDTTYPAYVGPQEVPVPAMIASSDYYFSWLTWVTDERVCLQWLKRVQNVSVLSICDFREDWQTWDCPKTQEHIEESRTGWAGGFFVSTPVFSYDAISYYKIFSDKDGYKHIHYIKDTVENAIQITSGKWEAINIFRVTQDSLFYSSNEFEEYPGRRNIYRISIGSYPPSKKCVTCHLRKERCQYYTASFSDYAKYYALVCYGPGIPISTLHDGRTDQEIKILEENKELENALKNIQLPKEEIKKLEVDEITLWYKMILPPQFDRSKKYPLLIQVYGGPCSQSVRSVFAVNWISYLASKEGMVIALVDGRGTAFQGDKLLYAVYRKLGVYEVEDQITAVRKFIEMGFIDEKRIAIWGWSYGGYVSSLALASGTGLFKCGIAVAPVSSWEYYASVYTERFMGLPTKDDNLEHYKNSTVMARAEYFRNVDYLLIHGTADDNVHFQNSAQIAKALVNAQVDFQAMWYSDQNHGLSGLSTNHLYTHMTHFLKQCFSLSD
Method: (§1) Peptide potencies (IC50) to inhibit the FAP enzymatic activity were determined using a fluorescence-based assay towards the biotinylated His, Avi tag, human FAP (26-760, FAP-H82Q6) and the biotinylated His, Avi tag, mouse FAP (26-761, FAP-M82Q5). Standard assay conditions consisted of 20 μL total volume in white 384-well plates (Greiner, Ref. 784075), in 50 mM phosphate buffer pH 7.5 containing 150 mM NaCl, 0.05% Tween20 and 1% final DMSO. Tested peptides at 14 different concentrations up to 1 μM were added to 0.01 nM human or mouse FAP. The peptides were incubated for 24 hours together with the protein before adding the substrate 50 μM Z-Gly-Pro-AMC (I-1145 from Bachem). Samples were then incubated at 22-24° C. for 4 h before reading the fluorescence at excitation wavelength of 380 nm and emission wavelength of 460 nm using the Tecan Infinite® M1000 PRO. The high control (100% activity) was not containing any peptide, and an internal potent peptide was added at 10 μM concentration for the low control (100% inhibition). IC50 values were calculated by curve fitting using an in-house developed software (Novartis Helios software application) using the method described by Fomenko et al., 2006 (regression algorithms for nonlinear dose-response curve fitting). Following normalization of activity values for the wells to % inhibition (% inhibition=[(high control-sample)/(high control-low control)]x 100). IC50 fitting was carried out from the duplicated points.

mouse FAP [2] = target: T1, mouse FAP; experiment: Enzymatic FAP competition assay (Z-Gly-Pro-AMC fluorescence), mouse FAP; assay type: biochemical; details: read-out: m. FAP, Enz., IC50
Method: as §1

Row | Compound | Kd (mouse FAP [1]) [nM] | IC50 (human FAP) [nM] | IC50 (mouse FAP [2]) [nM]
1 | Gly-Gly-NMePhe-F4(METRIAZOLYLMENHDOTA-Lu)-Ahp-Trp-Gly-Tyr-Asp-D-Pro (cyclo(GG[NMeF][F4(METRIAZOLYLMENHDOTA-Lu)][Ahp(2)]WGYD[dP]); also: Lu complex) [Example C14] | 0.048 | 0.009 | 0.024
2 | CCCCC[C@@H]1NC(=O)[C@H](Cc2ccc(O)cc2)NC(=O)[C@H](Cc2ccccc2)N(C)C(=O)CNC(=O)CNC(=O)[C@H]2CCCN2C(=O)[C@H](CC(=O)O)NC(=O)[C@H](Cc2ccc(O)cc2)NC(=O)[C@@H](C)NC(=O)[C@H](Cc2c[nH]c3ccccc23)NC1=O [Example A64, Gly-Gly-NMePhe-Tyr-Ahp-Trp-D-Ala-Tyr-Asp-D-Pro] (cyclo([Ahp(2)]W[dA]YD[dP]GG[NMeF]Y)) | 3.6 | 2.4 | 4.1
3 | Gly-Gly-NMePhe-F(4OEtnHNODAGA-Lu)-Ahp-Trp-Gly-Tyr-Asp-D-Pro (cyclo(GG[NMeF][F(4OEtnHNODAGA-Lu)][Ahp(2)]WGYD[dP]); also: Lu complex) [Example C30] | < 0.017 | 0.034 | 0.193
4 | Gly-Gly-NMePhe-F(4amPEG2NHRDOTAGA-Lu)-hS(Pr)-Trp-Gly-K(COpipzaa)-Asp-D-Pro (cyclo(GG[NMeF][F(4amPEG2NHRDOTAGA-Lu)][hS(Pr)]WGK(COpipzaa)D[dP]); also: Lu complex) [Example C33] | < 0.02 | 0.012 | 0.026
5 | CCCCCC[C@@H]1NC(=O)[C@H](Cc2ccc(O)cc2)NC(=O)[C@H](Cc2ccccc2)N(C)C(=O)CNC(=O)[C@H](CCCCN)NC(=O)[C@H]2CCCN2C(=O)[C@H](CC(=O)O)NC(=O)[C@H](Cc2ccc(O)cc2)NC(=O)CNC(=O)[C@H](Cc2c[nH]c3ccccc23)NC1=O [Example A31, Lys-Gly-NMePhe-Tyr-Aoc-Trp-Gly-Tyr-Asp-D-Pro, TFA salt] (cyclo([Aoc(2)]WGYD[dP]KG[NMeF]Y)) | 0.106 | 0.04 | 0.158
6 | CCCCC[C@@H]1NC(=O)[C@H](Cc2ccc(O)cc2)NC(=O)[C@H](Cc2ccccc2)N(C)C(=O)CNC(=O)[C@H](CC(=O)O)NC(=O)[C@H]2CCCN2C(=O)[C@H](CC(=O)O)NC(=O)[C@H](Cc2ccc(O)cc2)NC(=O)CNC(=O)[C@H](Cc2c[nH]c3ccccc23)NC1=O [Example A18, Asp-Gly-NMePhe-Tyr-Ahp-Trp-Gly-Tyr-Asp-D-Pro] (cyclo([Ahp(2)]WGYD[dP]DG[NMeF]Y)) | 0.222 | 0.27 | 0.71
7 | CCCCC[C@@H]1NC(=O)[C@H](Cc2ccc(OCCNC(=O)CC[C@H](C(=O)O)N3CCN(CC(=O)O)CCN(CC(=O)O)CCN(CC(=O)O)CC3)cc2)NC(=O)[C@H](Cc2ccccc2)N(C)C(=O)CNC(=O)CNC(=O)[C@H]2CCCN2C(=O)[C@H](CC(=O)O)NC(=O)[C@H](Cc2ccc(O)cc2)NC(=O)CNC(=O)[C@H](Cc2c[nH]c3ccccc23)NC1=O [Example B30, Gly-Gly-NMePhe-F(4OEtNHRDOTAGA)-Ahp-Trp-Gly-Tyr-Asp-D-Pro] (cyclo([AEF](X9)[Ahp(2)]WGYD[dP]GG[NMeF])) | 0.119 | 0.019 | 0.118
8 | CCCCC[C@@H]1NC(=O)[C@H](Cc2ccc(O)cc2)NC(=O)[C@H](Cc2ccccc2)N(C)C(=O)CNC(=O)CNC(=O)[C@H]2CCCN2C(=O)[C@](C)(CC(=O)O)NC(=O)[C@H](Cc2ccc(O)cc2)NC(=O)CNC(=O)[C@H](Cc2c[nH]c3ccccc23)NC1=O [Example A72, Gly-Gly-NMePhe-Tyr-Ahp-Trp-Gly-Tyr-aMeD-D-Pro] (cyclo([Ahp(2)]WGY[αMeD][dP]GG[NMeF]Y)) | > 6000 | 237 | 1000
9 | CCCCC[C@@H]1NC(=O)[C@H](Cc2ccc(OCCN)cc2)NC(=O)[C@H](Cc2ccccc2)N(C)C(=O)CNC(=O)CNC(=O)[C@H]2CCCN2C(=O)[C@H](CC(=O)O)NC(=O)[C@H](CCCCNC(=O)N2CCN(CC(=O)O)CC2)NC(=O)CNC(=O)[C@H](Cc2c[nH]c3ccccc23)NC1=O [Example A6, 2-((9S,12S,15S,18S,24S,27S,32aR)-18-((1H-indol-3-yl)methyl)-12-(4-(2-aminoethoxy)benzyl)-9-benzyl-24-(4-(4-(carboxymethyl)piperazine-1-carboxamido)butyl)-8-methyl-1,4,7,10,13,16,19,22,25,28-decaoxo-15-pentyldotriacontahydropyrrolo[1,2-a][1,4,7,10,13,16,19,22,25,28]decaazacyclotriacontin-27-yl)acetic acid TFA salt] (cyclo([AEF][Ahp(2)]WGK([CO-Piperazinyl(4-CH2COOH)])D[dP]GG[NMeF])) | 0.188 | 0.071 | 0.178

Reference: patent US20250090699A1, “FAP TARGETING CYCLIC PEPTIDES AND CONJUGATES THEREOF” (Novartis AG, priority 2023, published 2025)
